Among the data in patent US20230295200A1 (REGENTS OF THE UNIVERSITY OF MICHIGAN, priority 2022, published 2023) are Ki values, retold here.

Molecules are shown by their SMILES. Some results are limits rather than exact numbers.

The experiment addresses T1, STAT6 protein (Homo sapiens, UniProt P42226).
T1 sequence (P42226 1-847): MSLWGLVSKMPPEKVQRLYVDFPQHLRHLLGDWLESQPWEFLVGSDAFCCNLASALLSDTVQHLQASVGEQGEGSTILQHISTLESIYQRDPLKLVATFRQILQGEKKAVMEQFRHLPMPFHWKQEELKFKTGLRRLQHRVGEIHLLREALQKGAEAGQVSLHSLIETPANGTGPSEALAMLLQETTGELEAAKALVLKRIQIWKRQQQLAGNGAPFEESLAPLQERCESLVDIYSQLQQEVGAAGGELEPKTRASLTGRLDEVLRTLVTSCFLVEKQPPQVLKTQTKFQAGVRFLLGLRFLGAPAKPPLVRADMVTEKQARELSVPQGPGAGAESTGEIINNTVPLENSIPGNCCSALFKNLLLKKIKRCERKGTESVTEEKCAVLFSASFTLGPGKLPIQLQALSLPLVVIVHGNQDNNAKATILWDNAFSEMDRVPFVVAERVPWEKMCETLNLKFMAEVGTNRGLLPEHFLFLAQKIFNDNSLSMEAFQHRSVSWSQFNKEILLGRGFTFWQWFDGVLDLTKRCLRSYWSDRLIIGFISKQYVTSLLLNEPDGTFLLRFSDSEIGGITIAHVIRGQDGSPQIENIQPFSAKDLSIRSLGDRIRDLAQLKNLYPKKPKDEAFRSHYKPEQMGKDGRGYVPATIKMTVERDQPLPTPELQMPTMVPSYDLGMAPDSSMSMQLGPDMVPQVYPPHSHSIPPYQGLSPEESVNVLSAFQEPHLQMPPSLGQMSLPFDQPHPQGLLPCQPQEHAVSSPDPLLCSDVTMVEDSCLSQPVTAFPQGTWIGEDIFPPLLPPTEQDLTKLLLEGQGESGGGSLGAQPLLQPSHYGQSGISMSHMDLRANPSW
Briefly: Fluorescence polarization (FP) binding assay, STAT6. Conditions: FP competition, 5 nM fluorescein-labeled tracer, 200 nM protein, PBS pH7.4; read-out: Binding STAT6. In short, it runs like this:
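Fluorescein-labelled tracer (5 nM) with 200 nM STAT5 and/or STAT6 protein in PBS pH 7.4, 0.01% BGG, 0.01% Tween-20, 2 mM DTT. Mixed 15 min, then equilibrated 1 h at room temperature; read by fluorescence polarization, constants from nonlinear curve fitting.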
For orientation: Polarisation of emitted light reports the rotation of a fluorescent probe.
Turning to `CC(=O)N1CC[C@H]2CC[C@@H](C(=O)N3CCc4ccccc4C3)N2C(=O)[C@@H](NC(=O)c2cc3cc(C(F)(F)P(=O)(O)O)ccc3[nH]2)C1` [Compound 332, ((2-(((5S,8S,10aR)-3-acetyl-6-oxo-8-(1,2,3,4-tetrahydroisoquinoline-2-carbonyl)decahydropyrrolo[1,2-a][1,5]diazocin-5-yl)carbamoyl)-1H-indol-5-yl)difluoromethyl)phosphonic acid], the Ki was over 10 µM.
The figure for `CC(=O)N1CC[C@H]2CC[C@@H](C(=O)N3CCc4ccccc4C3)N2C(=O)[C@@H](NC(=O)c2cc3cc(C(F)(F)P(=O)(O)O)ccc3s2)C1` [Compound 333, ((2-(((5S,8S,10aR)-3-acetyl-6-oxo-8-(1,2,3,4-tetrahydroisoquinoline-2-carbonyl)decahydropyrrolo[1,2-a][1,5]diazocin-5-yl)carbamoyl)benzo[b]thiophen-5-yl)difluoromethyl)phosphonic acid] is over 10 µM; for `CC(=O)N1CC[C@H]2CC[C@@H](C(=O)N3CCc4ccccc4C3)N2C(=O)[C@@H](NC(=O)c2ccc3ccc(C(F)(F)P(=O)(O)O)cc3c2)C1` [Compound 334, ((7-(((5S,8S,10aR)-3-acetyl-6-oxo-8-(1,2,3,4-tetrahydroisoquinoline-2-carbonyl)decahydropyrrolo[1,2-a][1,5]diazocin-5-yl)carbamoyl)naphthalen-2-yl)difluoromethyl)phosphonic acid] it is over 10 µM.
For `CC(=O)N1CC[C@H]2CC[C@@H](C(=O)NCc3ccccc3)N2C(=O)[C@@H](NC(=O)c2cc3cc(C(F)(F)P(=O)(O)O)ccc3[nH]2)C1` [Compound 335, ((2-(((5S,8S,10aR)-3-acetyl-8-(benzylcarbamoyl)-6-oxodecahydropyrrolo[1,2-a][1,5]diazocin-5-yl)carbamoyl)-1H-indol-5-yl)difluoromethyl)phosphonic acid] the value was over 10 µM; for `CC(=O)N1CC[C@H]2CC[C@@H](C(=O)N(C)Cc3ccccc3)N2C(=O)[C@@H](NC(=O)c2cc3cc(C(F)(F)P(=O)(O)O)ccc3[nH]2)C1` [Compound 336, ((2-(((5S,8S,10aR)-3-acetyl-8-(benzyl(methyl)carbamoyl)-6-oxodecahydropyrrolo[1,2-a][1,5]diazocin-5-yl)carbamoyl)-1H-indol-5-yl)difluoromethyl)phosphonic acid], 1 to 10 µM; for `CC(=O)N1CC[C@H]2CC[C@@H](C(=O)N[C@@H](C)c3ccccc3)N2C(=O)[C@@H](NC(=O)c2cc3cc(C(F)(F)P(=O)(O)O)ccc3[nH]2)C1` [Compound 337, ((2-(((5S,8S,10aR)-3-acetyl-6-oxo-8-(((S)-1-phenylethyl)carbamoyl)decahydropyrrolo[1,2-a][1,5]diazocin-5-yl)carbamoyl)-1H-indol-5-yl)difluoromethyl)phosphonic acid], 1 to 10 µM.
In the case of `CC(=O)N1CC[C@H]2CC[C@@H](C(=O)N[C@H](C)c3ccccc3)N2C(=O)[C@@H](NC(=O)c2cc3cc(C(F)(F)P(=O)(O)O)ccc3[nH]2)C1` [Compound 338, ((2-(((5S,8S,10aR)-3-acetyl-6-oxo-8-(((R)-1-phenylethyl)carbamoyl)decahydropyrrolo[1,2-a][1,5]diazocin-5-yl)carbamoyl)-1H-indol-5-yl)difluoromethyl)phosphonic acid], the Ki was over 10 µM.
The figure for `CC(=O)N1CC[C@H]2CC[C@@H](C(=O)NC(C)(C)c3ccccc3)N2C(=O)[C@@H](NC(=O)c2cc3cc(C(F)(F)P(=O)(O)O)ccc3[nH]2)C1` [Compound 339, ((2-(((5S,8S,10aR)-3-acetyl-6-oxo-8-((2-phenylpropan-2-yl)carbamoyl)decahydropyrrolo[1,2-a][1,5]diazocin-5-yl)carbamoyl)-1H-indol-5-yl)difluoromethyl)phosphonic acid] is over 10 µM.
For `CC(=O)N1CC[C@H]2CC[C@@H](C(=O)NC3(c4ccccc4)CC3)N2C(=O)[C@@H](NC(=O)c2cc3cc(C(F)(F)P(=O)(O)O)ccc3[nH]2)C1` [Compound 340, ((2-(((5S,8S,10aR)-3-acetyl-6-oxo-8-((1-phenylcyclopropyl)carbamoyl)deca hydropyrrolo[1,2-a][1,5]diazocin-5-yl)carbamoyl)-1H-indol-5-yl)difluoromethyl)phosphonic acid] the value was over 10 µM.
For `CC(=O)N1CC[C@H]2CC[C@@H](C(=O)NC3(c4ccccc4)CCOCC3)N2C(=O)[C@@H](NC(=O)c2cc3cc(C(F)(F)P(=O)(O)O)ccc3[nH]2)C1` [Compound 341, ((2-(((5S,8S,10aR)-3-acetyl-6-oxo-8-((4-phenyltetrahydro-2H-pyran-4-yl)carbamoyl)decahydropyrrolo[1,2-a][1,5]diazocin-5-yl)carbamoyl)-1H-indol-5-yl)difluoromethyl)phosphonic acid] the value was 1 to 10 µM.
On to `CC(=O)N1CC[C@H]2CC[C@@H](C(=O)N(Cc3ccccc3)C3CCCCC3)N2C(=O)[C@@H](NC(=O)c2cc3cc(C(F)(F)P(=O)(O)O)ccc3[nH]2)C1` [Compound 342, ((2-(((5S,8S,10aR)-3-acetyl-8-(benzyl(cyclohexyl)carbamoyl)-6-oxodecahydropyrrolo[1,2-a][1,5]diazocin-5-yl)carbamoyl)-1H-indol-5-yl)difluoromethyl)phosphonic acid], for which the Ki is 1 to 10 µM.
The figure for `CC(=O)N1CC[C@H]2CC[C@@H](C(=O)N3CCc4c(F)cccc4C3)N2C(=O)[C@@H](NC(=O)c2cc3cc(C(F)(F)P(=O)(O)O)ccc3[nH]2)C1` [Compound 343, ((2-(((5S,8S,10aR)-3-acetyl-8-(5-fluoro-1,2,3,4-tetrahydroisoquinoline-2-carbonyl)-6-oxodecahydropyrrolo[1,2-a][1,5]diazocin-5-yl)carbamoyl)-1H-indol-5-yl)difluoromethyl)phosphonic acid] is 1 to 10 µM; for `CC(=O)N1CC[C@H]2CC[C@@H](C(=O)N3CCc4cc(F)ccc4C3)N2C(=O)[C@@H](NC(=O)c2cc3cc(C(F)(F)P(=O)(O)O)ccc3[nH]2)C1` [Compound 344, ((2-(((5S,8,10aR)-3-acetyl-8-(6-fluoro-1,2,3,4-tetrahydroisoquinoline-2-carbonyl)-6-oxodecahydropyrrolo[1,2-a][1,5]diazocin-5-yl)carbamoyl)-1H-indol-5-yl)difluoromethyl)phosphonic acid] it is over 10 µM.
For `CC(=O)N1CC[C@H]2CC[C@@H](C(=O)N3CCc4ccc(F)cc4C3)N2C(=O)[C@@H](NC(=O)c2cc3cc(C(F)(F)P(=O)(O)O)ccc3[nH]2)C1` [Compound 355, ((2-(((5S,8S,10aR)-3-acetyl-8-(7-fluoro-1,2,3,4-tetrahydroisoquinoline-2-carbonyl)-6-oxodecahydropyrrolo[1,2-a][1,5]diazocin-5-yl)carbamoyl)-1H-indol-5-yl)difluoromethyl)phosphonic acid] the value was over 10 µM; for `CC(=O)N1CC[C@H]2CC[C@@H](C(=O)N3CCc4cccc(F)c4C3)N2C(=O)[C@@H](NC(=O)c2cc3cc(C(F)(F)P(=O)(O)O)ccc3[nH]2)C1` [Compound 356, ((2-(((5S,8S,10aR)-3-acetyl-8-(8-fluoro-1,2,3,4-tetrahydroisoquinoline-2-carbonyl)-6-oxodecahydropyrrolo[1,2-a][1,5]diazocin-5-yl)carbamoyl)-1H-indol-5-yl)difluoromethyl)phosphonic acid], over 10 µM.
The figure for `CC(=O)N1CC[C@H]2CC[C@@H](C(=O)N3CCc4ccc(C)cc4C3)N2C(=O)[C@@H](NC(=O)c2cc3cc(C(F)(F)P(=O)(O)O)ccc3[nH]2)C1` [Compound 357, ((2-(((5S,8S,10aR)-3-acetyl-8-(7-methyl-1,2,3,4-tetrahydroisoquinoline-2-carbonyl)-6-oxodecahydropyrrolo[1,2-a][1,5]diazocin-5-yl)carbamoyl)-1H-indol-5-yl)difluoromethyl)phosphonic acid] is over 10 µM.
On to `CC(=O)N1CC[C@H]2CC[C@@H](C(=O)N3CCc4ccc(C(F)(F)F)cc4C3)N2C(=O)[C@@H](NC(=O)c2cc3cc(C(F)(F)P(=O)(O)O)ccc3[nH]2)C1` [Compound 358, ((2-(((5S,8S,10aR)-3-acetyl-6-oxo-8-(7-(trifluoromethyl)-1,2,3,4-tetrahydroisoquinoline-2-carbonyl)decahydropyrrolo[1,2-a][1,5]diazocin-5-yl)carbamoyl)-1H-indol-5-yl)difluoromethyl)phosphonic acid], for which the Ki was over 10 µM.
Regarding `CC(=O)N1CC[C@H]2CC[C@@H](C(=O)N3Cc4ccccc4C3)N2C(=O)[C@@H](NC(=O)c2cc3cc(C(F)(F)P(=O)(O)O)ccc3[nH]2)C1` [Compound 359, ((2-(((5S,8S,10aR)-3-acetyl-8-(isoindoline-2-carbonyl)-6-oxodecahydropyrrolo[1,2-a][1,5]diazocin-5-yl)carbamoyl)-1H-indol-5-yl)difluoromethyl)phosphonic acid], the Ki was 0.1 to 1 µM.
